Literature values, collected in patent US20060120971A1, “Agents and methods for administration to the central nervous system” (SIGNUM PHARMACEUTICALS, INC., priority 2004, published 2006).

Target: T1, carnitine palmitoyltransferase-1 (CPT1) (Rattus norvegicus, UniProt P32198)
T1 construct: decrease levels of CPT1 activity and increase the levels of LC-CoAs in the hypothalamus of healthy rats; host or cells: endogenous enzyme in brain/hypothalamus of conscious Sprague-Dawley rats (in vivo, ICV infusion)
T1 sequence (P32198 1-773): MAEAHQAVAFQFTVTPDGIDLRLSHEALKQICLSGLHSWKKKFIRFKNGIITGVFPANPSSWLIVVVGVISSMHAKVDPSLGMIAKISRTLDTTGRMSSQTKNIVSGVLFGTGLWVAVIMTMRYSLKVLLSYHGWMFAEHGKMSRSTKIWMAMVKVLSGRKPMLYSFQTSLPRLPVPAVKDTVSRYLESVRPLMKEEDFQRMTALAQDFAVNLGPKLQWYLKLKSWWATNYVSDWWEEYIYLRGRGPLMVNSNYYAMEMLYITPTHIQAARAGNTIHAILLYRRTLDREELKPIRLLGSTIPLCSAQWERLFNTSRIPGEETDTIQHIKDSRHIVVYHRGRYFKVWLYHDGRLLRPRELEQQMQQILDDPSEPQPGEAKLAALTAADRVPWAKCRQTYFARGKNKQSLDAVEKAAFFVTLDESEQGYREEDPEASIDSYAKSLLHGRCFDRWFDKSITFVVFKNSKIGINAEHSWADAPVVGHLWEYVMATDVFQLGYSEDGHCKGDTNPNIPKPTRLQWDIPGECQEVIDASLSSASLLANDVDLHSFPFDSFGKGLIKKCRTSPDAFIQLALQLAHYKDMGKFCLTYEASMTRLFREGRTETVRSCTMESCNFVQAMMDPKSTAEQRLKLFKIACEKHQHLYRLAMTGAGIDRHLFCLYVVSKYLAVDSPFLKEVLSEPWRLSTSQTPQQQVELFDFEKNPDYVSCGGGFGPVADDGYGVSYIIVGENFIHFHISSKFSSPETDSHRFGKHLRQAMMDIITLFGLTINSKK

[1] = healthy conscious Sprague-Dawley rats, continuous ICV infusion into third cerebral ventricle

Compound: CCCCCCCCCCCCCCNC(=O)N[C@H](CC(=O)[O-])C[N+](C)(C)C [ST1326, R-4-trimethylammonium-3-(tetradecylcarbamoyl)-aminobutyrate]
- CPT1 activity (brain of healthy rats, ICV infusion): effectively decreasing
- endogenous glucose production [1]: reduced
- food intake [1]: diminished
- hypothalamic concentrations of LC-CoA (hypothalamus of healthy rats, ICV infusion): substantially increasing
